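All cell lines were grown in 96-well plates and treated with compound for 48 hours. TGI is the concentration that stops growth completely.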
Columns and labels:
Experiment in all cases: NCI-60 cell line screen, 48 h
[1] = test system: HCT-15 colon
[2] = test system: SNB-78 CNS
[3] = test system: SNB-75 CNS
[4] = test system: LOX IMVI melanoma
[5] = test system: HOP-18 NSCLC
[6] = test system: ACHN renal
[7] = test system: DMS 273 small cell lung
[8] = test system: SF-539 CNS
[9] = test system: HCC-2998 colon
[10] = test system: MALME-3M melanoma
[11] = test system: SK-OV-3 ovarian
[12] = test system: XF 498 CNS
[13] = test system: SF-295 CNS

Measured: TGI

O=C1CCC(c2ccccc2)=NN1c1nsc2ccccc12
not listed: [10] | [11] | [12] | [13]
> 100 µM: all other assays above

COc1cccc(N2C(Cl)C(=O)C2c2c[nH]c3ccccc23)c1 (stereo not drawn)
> 100 µM: [10] | [11] | [12] | [13]
